Source: patent publication US11135340B2, “Compositions and methods for preparation of composite polymer coatings on medical implants, and their use for co-delivery of multiple antimicrobial agents” (THE JOHNS HOPKINS UNIVERSITY, priority 2016, dated 2021)
Read-outs that look alike come from different tables or passages of the source.

How the values were obtained:
[1] = In vivo release kinetics of ICG from PCL coating by fluorescence imaging; parameters: species or system mice; conditions: ICG loaded PCL coating on K-wire in mouse femur
Source text: FIG. 9A and FIG. 9B show in vivo release kinetics as measured by PCL coatings impregnated with a near-infrared (NIR) fluorescent dye Indocyanine green (ICG) as a surrogate for the antibiotic loaded coatings.
The near-infrared (NIR) fluorescence imaging dye indocyanine green (ICG) was used as a surrogate model for drug loading and release in an established mouse model (described in Example 4) to monitor the in vivo release kinetics from PCL coating (FIG. 9A and FIG. 9B). ICG loaded PCL was coated onto titanium K-wire (described in Example 1). The implants were surgically placed in a retrograde fashion with 1 mm protruding into the joint space of mice. The release of ICG was measured by its fluorescence intensity at different time points.

XEN36 = test: MIC of XEN36 for each antibiotic; type: cell-based, Staphylococcus aureus; conditions: S. aureus XEN36
[2] = In vitro release of antibiotics from composite coatings on titanium K-wire implants; type: physicochemical; conditions: for Day 1 release of Gentamicin: of total loading; for release kinetics after storage: coated pins stored 6 weeks room temperature, 6 weeks −20° C. or 8 months frozen, vs fresh
Procedure: The release rate of the polymer composite film was measured by HPLC. Drug release studies were conducted using coated pins created with the same loading parameters as those used for later in vivo testing (10% (w/w) drug combinations) electrospun for 60 seconds at injection rates of 0.5 mL/h from each needle. Release rate of antibiotics from the composite polymer coating was characterized by placing coated pins in 200 μL pH 7.4 PBS buffer and incubating at 37° C. in an aluminum film-covered incubator to prevent possible light-induced drug degradation. Release media was changed at fixed time points over a period of two weeks and stored in a −20° C. freezer until analysis. Drug concentrations in release media for each day were determined via reverse-phase HPLC using a C-18 column in an Alliance HPLC system and Waters 2996 PDA detector. The mobile phase was a mixture of acetonitrile and water both mixed with 0.1% TFA acid, which was run at a gradient from (15%/85%) to (40%/60%) for a total runtime of 15 minutes per sample for the elution of Van/Rif and Lin/Rif drug loading groups. Elution of the Dap/Rif loading group was conducted using a mobile phase of (49%/51%) of acetonitrile and water both mixed with 0.1% TFA acid for a total run time of 11 minutes per sample. Concentrations of the drugs were quantified using wavelengths of 343 nm for Rif, 254 nm for Lin, 280 nm for Van and 223 nm for Dap using prepared standard curves for all three drugs. […] Quantification was performed through the derivatization of Gentamicin with ninhydrin at 95° C. for 15 minutes and detection with a Biotek Synergy2 plate reader.
Drug release studies were conducted using coated pins created with the same loading parameters as detailed above. Release kinetics of antibiotics from the composite coating were characterized by placing coated pins in 200 μL of phosphate buffer saline (PBS, pH 7.4) at 37° C. Release media was changed daily over a period of two weeks and stored at −20° C. until analysis. Drug concentrations in release media were measured on days 1, 2, 3, 5, 7, 10 and 14 using a Waters Alliance 2690 HPLC system (Waters Corporation, Milford, Mass.) equipped with an Accucore RP-MS C18 column (100 mm×2.1 mm; Thermo Fisher Scientific) and a Waters 2996 PDA detector. The elution was carried out with a mobile phase of water and acetonitrile both mixed with 0.1% TFA at a flow rate of 1 mL/min at ambient temperature using a linear gradient elution program of 85% water to […] in 15 minutes. Concentrations of the drugs were quantified using wavelengths for Van (280 nm), Lin (254 nm), Dap (224 nm) and Rif (263 nm).

S. aureus = test: In vitro zone of inhibition assay of coated K-wires; type: cell-based, Staphylococcus aureus; conditions: any of the storage conditions vs freshly prepared coatings
Source text: A zone of inhibition assay was used as an additional assay to evaluate the in vitro release of antibiotic(s) from the composite coating. Tryptic soy agar bacterial plates were inoculated with S. aureus bacteria cells to yield a bacterial lawn after overnight culture. After bacterial inoculation and before culturing the plates, two identical titanium K-wires loaded with either 10 w/w % Lin, 10 w/w % Van, or 10 w/w % Dap alone, or in combination with Rif were placed in two separate areas on the plate. After culturing the plates at 37° C. for 24 hours, the antimicrobial activity of the eluded antibiotic(s) into the agar was measured as a zone of inhibition (diameter [mm]) of the bacterial growth around the K-wire.
Long-term efficacy of the antimicrobial activity was tested by storing electrospun pins at room temperature for 6 weeks, −20° C. for 6 weeks, and −80° C. for 8 months. Coated pins were protected from light during storage. These pins were then used in the same zone of inhibition assay as described hereinabove. These antimicrobial results were further confirmed with a two-week in vitro release study to determine release kinetics after storage.
Tryptic soy agar (TSA) bacterial plates were inoculated with S. aureus to yield a bacterial lawn after overnight culture. Before culturing the plates, two titanium K-wires each loaded with the same combination of antibiotics from each set were placed in two separate areas on the plate. After culturing at 37° C. for 24 hours, the zone of inhibition (ZOI) (diameter/mm) of bacterial growth were measured.

[3] = test system: S. aureus bioluminescent strain Xen36; test: Mouse model of prosthetic joint infection: in vivo bioluminescence imaging and CFU; parameters: species or system mice; conditions: intravenous prophylaxis 110 mg/kg at −1 and 16 hours
[4] = Staphylococcus aureus, read-out: MIC

With CC1(C)C(/C=C/C=C/C=C/C=C2\N(CCCCS(=O)(=O)O)c3ccc4ccccc4c3C2(C)C)=[N+](CCCCS(=O)(=O)[O-])c2ccc3ccccc3c21 [ICG, indocyanine green] as the compound, how does the “duration of ICG release” value [1] read?
Its value is “over two weeks”.

What about the “peak dissolution of ICG” value [1] of the same compound?
Its value is 1 days.

Which MIC (XEN36; [4]) does the source give for CO[C@H]1/C=C/O[C@@]2(C)Oc3c(C)c(O)c4c(O)c(c(/C=N/N5CCN(C)CC5)c(O)c4c3C2=O)NC(=O)/C(C)=C\C=C\[C@H](C)[C@H](O)[C@@H](C)[C@@H](O)[C@@H](C)[C@H](OC(C)=O)[C@@H]1C [Rif, Rifampin] here?
Its MIC is 0.5 µg/mL.

What about the “release of Rif out of the composite film coating after storage (reduced or not)” value ([2]; pins stored at −20° C.) of the same compound?
The value was “not when the pins were stored at −20 °C”.

And the “release of Rif out of the composite film coating after storage” value ([2]; storage at room temperature for six weeks)?
Its value is “reduced”.

What about the “Rif remains above the MIC” value ([2]; tuned by PCL molecular weight or PCL layer thickness) of the same compound?
Its value is 2 to 5 days.

And the “antimicrobial activity (zone of inhibition) after storage” value (S. aureus)?
The value was “no significant loss of antimicrobial activity”.

What does the source list for Gentamicin?
MIC (XEN36): roughly 10 μg/mL; Gentamicin release profile ([2]; 50:50 PLGA): sustained release; Gentamicin release profile ([2]; 75:25 PLGA): only a burst release; release of Gentamicin above the MIC ([2]; controlled by polymer choice (PLA:PGA ratio of PLGA)): 2 to 14 days; Day 1 release of Gentamicin ([2]; PLGA nanofibers alone): 80%; Day 1 release of Gentamicin ([2]; PLGA nanofibers embedded in PCL film layer): less than 45%; Gentamicin MIC concentration sustained ([2]; release from PLGA nanofibers of composite coating, FIG. 11A): up to 14 days

Which results are given for CC(=O)NC[C@H]1CN(c2ccc(N3CCOCC3)c(F)c2)C(=O)O1 [Lin, linezolid]?
MIC (XEN36; [4]): 2 µg/mL; release kinetics after storage [2]: no difference in the release kinetics; antimicrobial activity (zone of inhibition) after storage (S. aureus): no significant loss of antimicrobial activity

Which MIC (XEN36; [4]) does the source give for CN[C@H](CC(C)C)C(=O)N[C@H]1C(=O)N[C@@H](CC(N)=O)C(=O)N[C@H]2C(=O)N[C@H]3C(=O)N[C@H](C(=O)N[C@H](C(=O)O)c4cc(O)cc(O)c4-c4cc3ccc4O)[C@H](O)c3ccc(c(Cl)c3)Oc3cc2cc(c3O[C@@H]2O[C@H](CO)[C@@H](O)[C@H](O)[C@H]2O[C@H]2C[C@](C)(N)[C@H](O)[C@H](C)O2)Oc2ccc(cc2Cl)[C@H]1O [Van, vancomycin] here?
The MIC was 0.5 µg/mL.

And the “release kinetics after storage” value [2]?
Its value is “no difference in the release kinetics”.

And the “antimicrobial activity (zone of inhibition) after storage” value (S. aureus)?
The value was “no significant loss of antimicrobial activity”.

And the BLI signals [3]?
The BLI signals was “decreased BLI signals”.

And the “clearance of infection (CFU from bone/joint tissue and implants)” value [3]?
Its value is “the infection was not cleared”.

For CCCCCCCCCC(=O)N[C@@H](Cc1c[nH]c2ccccc12)C(=O)N[C@H](CC(N)=O)C(=O)N[C@@H](CC(=O)O)C(=O)N[C@@H]1C(=O)NCC(=O)N[C@@H](CCCN)C(=O)N[C@@H](CC(=O)O)C(=O)N[C@H](C)C(=O)N[C@@H](CC(=O)O)C(=O)NCC(=O)N[C@H](CO)C(=O)N[C@@H]([C@H](C)CC(=O)O)C(=O)N[C@@H](CC(=O)c2ccccc2N)C(=O)O[C@@H]1C [Dap, daptomycin], which MIC (XEN36; [4]) is on record?
The MIC was 0.25 µg/mL.

What about the “release kinetics after storage” value [2] of the same compound?
Its value is “no difference in the release kinetics”.

What about the “antimicrobial activity (zone of inhibition) after storage” value (S. aureus) of the same compound?
Its value is “no significant loss of antimicrobial activity”.
